# According to US6861441B1, “Use of EP4 receptor ligands in the treatment of neuropathic pain and colon cancer” (SmithKline Beecham Corporation, priority 1999, dated 2005):
# Columns and labels:
# [1] = biological target: T1, human EP4 receptors (Homo sapiens, UniProt P35408); assay: Human EP4 Scintillation Proximity Assay (SPA), [3H]-prostaglandin E2 competition binding
# T1 construct: expressed in transfected cells; host or cells: Chinese Hamster Ovary (CHO) cells infected with Semliki Forest Virus carrying an SFV-1 RNA construct with the hEP4 receptor; membranes were prepared from these cells
# Experimental: Quantification of radioligand binding by scintillation proximity assay (SPA) is a long-established principle. Briefly, the affinity of compounds for a receptor is assessed by the specific competition between known quantities of radiolabelled ligand and compound for that receptor. Increasing concentrations of compound reduce the amount of radiolabel that binds to the receptor. This gives rise to a diminishing scintillation signal from SPA beads coated with membranes that bear the receptor. The signal may be detected with a suitable scintillation counter and the data generated may be analysed with suitable curve-fitting software.
# The human EP4 SPA assay (hereafter referred to as ‘the assay’) utilises membranes prepared from Chinese Hamster Ovary (CHO cells) infected with Semliki Forest Virus (SFV). […]
# For assay, membranes expressing human EP4 receptors are diluted in a pH-buffered medium and mixed with SPA beads coated with a suitable substance to facilitate the adhesion of membranes to the beads. […] Nonspecific binding (nsb) may be determined by competition between the radiolabelled ligand and a saturating concentration of unlabelled ligand. In order to quantify the affinity of EP4 receptor ligands, compounds are diluted in a stepwise manner across the wells of a 96-well plate. […] The affinity (pKi) of the compound may be calculated from the IC50 by application of the Cheng-Prusoff correction. […]
# [2] = test system: CCI-induced neuropathic hypersensitivity in male random hooded rats; assay: Chronic constriction injury (CCI) model of neuropathic hypersensitivity, paw withdrawal threshold; format: in vivo, rat; details: 10 mgkg-1 b.i.d. PO
# From the text: Under isoflurane anaesthesia, the common left sciatic nerve was exposed at mid thigh level and four loose ligatures of Chromic gut tied around it. The wound was then closed and secured using suture clips. The surgical procedure was identical for the sham operated animals except the sciatic nerve was not ligated. The rats were allowed a period of seven days to recover from the surgery before behavioural testing began.
# T1 sequence (P35408 whole entry): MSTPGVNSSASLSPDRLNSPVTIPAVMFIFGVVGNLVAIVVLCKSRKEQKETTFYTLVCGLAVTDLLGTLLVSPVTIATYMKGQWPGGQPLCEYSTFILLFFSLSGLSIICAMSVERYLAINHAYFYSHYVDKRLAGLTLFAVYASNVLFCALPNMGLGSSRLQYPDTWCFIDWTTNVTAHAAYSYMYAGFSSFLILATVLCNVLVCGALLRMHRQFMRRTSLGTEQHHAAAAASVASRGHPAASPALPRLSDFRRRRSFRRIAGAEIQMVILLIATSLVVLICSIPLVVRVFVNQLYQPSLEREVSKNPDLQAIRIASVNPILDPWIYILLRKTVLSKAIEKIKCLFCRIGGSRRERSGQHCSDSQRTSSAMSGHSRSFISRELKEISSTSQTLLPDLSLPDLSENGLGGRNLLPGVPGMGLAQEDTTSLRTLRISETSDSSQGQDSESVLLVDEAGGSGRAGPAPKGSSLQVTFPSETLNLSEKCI
smiles,measurement,setting,value
"CCOc1c2c(c(OCC)c3ccccc13)C(=O)N(c1ccc(CC(=O)O)cc1)C2 [IF, [4-(4,9-diethoxy-1-oxo-1,3-dihydro-2H-benzo[f]isoindol-2-yl)phenyl]acetic Acid]",Ki,[1],100 nM
same,time of chronic dosing until reversal became apparent,[2]; days 20-33 postoperative,3 days
same,time of chronic dosing until reversal was maximal,[2]; days 20-33 postoperative,1 week
same,effect on CCI-induced decrease in paw withdrawal threshold,[2]; dosed chronically for 14 days (days 20-33 postoperative),reversal of the CCI-induced decrease in paw withdrawal threshold
same,paw withdrawal threshold following cessation of the drug treatment,[2]; after the 14-day dosing period,returned to that of the vehicle treated CCI-operated animals
